# Test results reported in PMC5608406, “In vivo activation of latent HIV with a synthetic bryostatin analog effects both latent cell "kick" and "kill" in strategy for virus eradication” (PLoS Pathogens, 2017).
# Entries after “also recorded” stand apart in the source; their conditions may differ.
# Assays:
# [1] = system: murine splenocytes; assay: In vivo bioactivity (CD69/CD25 in splenocytes) in C57/bl6 mice
# Procedure: (§1) C57/bl6 mice were obtained from the UCLA Department of Radiation Oncology. Compounds were suspended in DMSO and then further diluted in RF10 media to produce a final volume of 500 μL (containing a maximum 4% DMSO). These 500 μL volumes were administered to mice by intraperitoneal injection. Mice were monitored for acute toxicities and then sacrificed at the indicated times. Spleens were removed and disaggregated using a steel mesh, and then filtered through a 40 μm filter to produce a single-cell suspension. The resultant splenocytes were then stained for flow cytometry to analyze surface expression of relevant markers.
# During standard flow cytometry staining, samples of 10^5 cells were suspended in 50 μL of a 1:1 dilution of phosphate buffered saline (PBS):Human AB serum (Sigma). Staining of C57/bl6 mouse splenocytes was performed by adding the following anti-mouse fluorescent conjugated antibodies: CD3-Fluorescein isothiocyanate (FITC, eBioscience 11-0032-82); CD69-Phycoerythrin (PE, eBioscience 12-0691-83); and CD4-Allophycocyanin (APC, eBioscience 17-0041-83). In some experiments CD4-APC was replaced with CD25-APC (eBioscience 17-0251-82) and CD4-Phycoerythrin Cyanin 7 (PC7, eBioscience 25-0041-82). For humanized mouse studies, PBMC and splenocytes from BLT mice were stained with anti-mouse CD45-Alexa 700 (Biolegend 103128) and the following anti-human antibodies: CD45-e450 (eBioscience 48-0459-42); CD3-APC-780 (eBioscience; 47-0038-42); CD4-V500 (BD biosciences; 560768); CD8-Peridinin chlorophyll protein (PerCP)-710 (eBioscience 46-0087-42); CD25-PE (Beckman IM0479U); CD69-APC (Biolegend 310910); CD14-PE-Cy7 (Biolegend 325618). Cells were separately stained for anti-human CD45 e450- (eBioscience 48-0459-42) and anti-HA-Biotin PE (Roche 12158167001) followed by a secondary Streptavidin, R-Phycoerythrin Conjugate (Invitrogen s866) stain. This two-step stain was performed by incubating 1-2x10^6 cells at 4°C for 20–30 min, washing with 2% FBS in PBS, then adding the secondary stain, incubating again at 4°C for 20–30 min, and washing with 2% FBS in PBS before fixation with 2% paraformaldehyde. In some experiments, cell death was also evaluated by GHOST Red 780 (Tonbo Biosciences 13–0865) or Zombie Yellow (Biolegend 423104) stains. For this procedure, 10^6 cells were suspended in 100 μL PBS, and then the Zombie yellow and GHOST Red 780 dyes added. Cells were incubated for 20 min at room temperature in the dark and then washed twice with 2% FBS in PBS. Cells were then fixed with 2% paraformaldehyde and incubated for 20 min in the dark. In some experiments cells were then washed with 2% FBS in PBS, resuspended in 1:1 PBS:Human AB serum and then stained for human CD45 and HA, CD3-PE-Cy5 (Biolegend 300310), CD4-ECD (Beckman 6604727), CD8 Per-CO710 (eBioscience 46-0087-42) and CD3-APC (Cell signaling 9602S) as described above.
# [2] = system: C57/bl6 mice; assay: In vivo acute toxicity / tolerability in C57/bl6 mice; settings: intraperitoneal injection, in some cases
# Procedure: as §1
# [3] = system: HIV strain NL-HA; assay type: in vivo, humanized BLT mice; settings: IP injection while maintaining ART, overnight incubation
# [4] = Plasma cytokine quantification after in vivo administration; settings: following administration to C57/bl6 mice
# Procedure: Quantification of the levels of the murine cytokines IL-2, IL-6, MIP-1-alpha, and TNF-alpha in mouse plasma samples was performed using a custom Milliplex Mouse Cytokine/Chemokine Magnetic Kit (Millipore) according to the manufacturer’s recommendations. Wash steps were performed using a Bio-Plex II Wash Station (Bio-Rad), and the data were acquired using a Bio-Plex 200 System with high-throughput fluidics (Bio-Rad). The resultant data were analyzed using Bio-Plex Manager 6.1 software.
# [5] = system: human T cells in BLT mice; assay: Stimulation of human cells in uninfected humanized BLT mice (CD69, CD25); assay type: in vivo; settings: spleen and blood, one day after stimulation
# [6] = system: J-Lat 10.6 cell line; design: method as in PMID 22914190; settings: cited from earlier work
# [7] = system: U1 cells; assay: Activation of HIV from latency in U1 cell line (p24 ELISA); assay type: cell-based; settings: 48h
# Procedure: U1 cells (tested negative for bacteria, mold, yeast, and mycoplasma) were obtained through the AIDS Reagent Program, Division of AIDS, NIAID, NIH from Dr. Thomas Folks. Cells and compound were seeded in a final 200 μL volume of RF10 media at a cell density of 20,000 cells/well in v-bottomed 96 well plates and incubated at 37°C for 48 hours. After incubation, cells were pelleted and supernatant harvested then diluted in a 2% Triton-x-100/phosphate buffered saline solution. The concentration of HIV p24 protein in the culture supernatant was quantified using the HIV p24 antigen enzyme linked immunosorbent assay (ELISA) kit (Beckman Coulter) according to the manufacturer’s instructions.
# [8] = system: latent HIV in CD4+ T cells from ART-treated patients; assay: Activation of HIV from latency in patient-derived CD4+ T cells (virion-associated HIV RNA in supernatant); assay type: cell-based, human
# From the text: Nine HIV-infected individuals receiving ART for a median of 2.6 years (range 0.4–9.1) were studied. All study subjects maintained undetectable levels of plasma viremia (<50 copies/mL) at the time of study (S1 Table).
# CD4^+ T cells were isolated from cryopreserved peripheral blood mononuclear cells (PBMCs) using a cell enrichment kit (StemCell Technologies). For patient samples 1–6, resting CD4^+ T cells were further isolated by depleting CD25^+, HLA-DR^+ and CD69^+ CD4^+ cells using PE-conjugated antibodies (BD Biosciences) and anti-PE microbeads (Miltenyi Biotec). CD4^+ T cells were incubated with RPMI 1640-based medium containing antiretroviral drugs consisting of T-20 (100 μg/mL), tenofovir (1 μM), and emtricitabine (1 μM), and test stimuli at concentrations indicated in the figures.
# The copy number of virion-associated HIV RNA in the cell culture supernatants was measured using the Cobas Ampliprep/Cobas Taqman HIV-1 Test, Version 2.0 (Roche Diagnostics) following 36–48 hours of incubation of cells with the above study compounds. The limit of detection was 20 copies/mL.
# [9] = system: HA+ (HIV-expressing) cells; assay type: in vivo, humanized BLT mice; settings: within 24 hours of activation, Ghost Red and Zombie Yellow
# [10] = CD4+ T cells from 3 ART-treated patients, 48h
smiles,measurement,setting,value
C=C1C[C@H]2C[C@]3(O)O[C@H](C[C@@H](O)CC(=O)O[C@@H](CO)C[C@@H]4C/C(=C\C(=O)OC)[C@H](OC(=O)CCCCCCC)[C@@](O)(O4)C(C)(C)/C=C/[C@@H](C1)O2)C[C@H](OC(C)=O)C3(C)C [SUW133],CD4+ splenocytes expressing CD69,"[1]; intraperitoneal injection, 24h post-injection, maximum over ascending doses",over 80%
same,lowest dose inducing CD69 expression,"[1]; intraperitoneal injection, C57/bl6 mice",1 µg
same,CD25 expression on CD3+ T cells in spleen,[1]; single injection of 10 μg,remained unchanged
same,"CD69 expression on splenocytes, time course","[1]; single injection of 10 μg, up to day 9",transient expression of CD69 on the vast majority of murine splenocytes
same,tolerated dose,[2],up to 30 μg per animal
same,percentage of HA+ (HIV-expressing) cells,[3],induced significant numbers of latently-infected cells to express viral proteins
same,plasma concentration of MIP-1-alpha,[4],no detectable increase
same,plasma concentration of TNF-alpha,[4],no detectable increase
same,plasma concentration of interleukin (IL)-2,[4],no detectable increase
same,plasma IL-6 levels,[4]; days 1 to 9,only a short-term elevation; also recorded: declined significantly between days 1 and 9 post-injection
same,CD25 expression in human T cells,[5],limited CD25 expression
same,CD69 expression in human T cells,[5],robust activation of CD69
same,induction of HIV from latency,[6],effectively induced HIV from latency
same,induction of latent virus (HIV p24 in supernatant),[7],induced significant levels of latent virus
same,amount of cell-free virion-associated HIV RNA relative to maximal T cell stimulation (costimulation),[8]; [10],approximately 1/3
same,virus production compared with other LRAs,[8]; [10],"significantly outperformed panobinostat, vorinostat, JQ1, and bryostatin 1 treatment"
same,induction of latent virus (cell-free virion-associated viral RNA),"[8]; resting CD4+ T cells from 6 aviremic patients, 50 nM, 36h",induced significant levels of latent virus
same,cells induced to express HIV that stained with cell death dyes,[9],up to 25%
